Data as given in US8697692B2, “Pyrrolo [3,2-c] pyridine-4-one 2-indolinone protein kinase inhibitors” (Shanghai Hengrui Pharmaceutical Co., Ltd., priority 2006, dated 2014).

Key:
[1] = tested on: HUVEC cell; test: Cell Proliferation Inhibition VEGF-R2 Assay (SRB method); assay type: cell-based, homo sapient; conditions: Homo sapiens; HUVEC cells, 72 hours exposure, Sulforhodamine B; read-out: IC50 (VEGFR/HUVEC)
From the text: The following in vitro assay may be used to determine the level of activity and effect of different compounds of the present invention on the proliferation inhibition (cell toxic) of endothelium growth factor receptor (VEGFR) high expressing homo […] cancer cell-HUVEC cell. The cellular assay described here measure the compounds of their anti-angiogenesis and proliferation inhibition activity and effect through […] on the cancer cells in vitro. The effect and activity is represented by the IC50 value that kills the cancer cell. […] The homo […] highly express […] are chosen and seeded to 96-well cell culture plate at a suitable concentration (exp 5000 cells/ml medium). The cells then are cultured in carbon dioxide (CO2) incubator till when they confluence to about 85%. Then, the cell culture medium is replaced by fresh one with tested compounds added in it at serial concentrations (general 6 to 7 concentrations). Then the cells are put back to the culture and cultured for continuous 72 hours. 72 hours later, the cell exposed to compounds and control cell are assayed for their proliferation using Sulforhodamine B (SRB) method. […] Dimethyl sulfoxide (Sinophma chemical reagent company, catalog No. T20050806) • b. HUVEC cells (Purchased from Institute of biochemistry and cell biology) • c. […] Acetic Acid (Sinophma chemical reagent company, Catalog No. T20060508) • l. Trichloroacetic Acid (Sinophma chemical reagent company, Catalog No. T20060305) • m. […] Class II A/B3 Biological safety cabinet (ThermoForma Catalog No. HB0053-03) • o. […] Centrifuge (Fisher Scientific Marathon 8 k, Catalog No. 0027-02) • q. Novastar Plate reader (BMG Labtech, Catalog No. 700-0081) • r. […] Growing seeded 96-well plates at 37° C., 5% CO2, till 85% confluence. • 4. Prepare compounds stock solution, using DMSO solve candidate compounds to a concentration of 20 mM. […] Use cell culture medium (in this case, DMEM/F12+10% FBS) to dilute the compounds solution prepared above. Each DMSO serial concentration compound solution is diluted by 20 times with culture medium by adding 5 μl DMSO compound solution to 95 μl culture medium, then mix well by vortex. […] After HUVEC cell has attached to the dish bottom and confluence about 85%, change the culture medium with fresh DMEM/F12 plus 10% FBS. Each well added 180 μl medium, then add 20 μl medium solution of tested compounds prepared at step 5 to each well. For control group cell, add 20 μl culture medium containing 0.5% pure DMSO. […] Each 96-well plate, we can test 3 compounds with a control cell group. • 7. Put the culture plates back to incubator, culture for 72 hours at 37° C., 5% CO2. • 8. 72 hours later, remove cultures from incubator into sterile work area. • 9. Prepare fixative (50% Trichloroacetic Acid-TCA) by adding reagent grade water to the TCA, fix the cells by gently layering 50 μl of cold TCA solution on top of the growth medium. • 10. Incubate plates for 1 hour at 4° C. and then rinse with water several times to remove TCA, serum proteins, etc. Plates are air dried and stored until use. Bland background optical density is measured in wells incubated with growth medium without cells. • 11. Use 10% acetic acid solution to prepare 0.4% Sulforhodamine B solution. Add 50 μl sulforhodamine B solution to each well of 96-well plates. • 12. Allow cells to stain for 30 minutes. • 13. Prepared the wash solution of […] acetic acid. At the end of the staining period, the stain is removed and the cells rinsed quickly with 1% acetic acid. Repeat until unincorporated dye is removed. Keep wash times to a minimum to reduce desorption of protein-bound dye. After being rinsed, the cultures are air dried until no moisture is visible. • 14. The incorporated dye is then solubilized in a volume of Sulforhodamine B assay Solubilization solution (10 mM Tris) equal to the original volume of culture medium. Allow cultures to stand for 5 minutes at room temperature.

[2] = tested on: A431 cell; test: Cell Proliferation Inhibition EGFR Assay (SRB method); assay type: cell-based, homo sapient; conditions: Homo sapiens, A-431; A431 cells, 72 hours exposure, Sulforhodamine B; read-out: IC50 (A431)
From the text: The following in vitro assay may be used to determine the level of activity and effect of different compounds of the present invention on the proliferation inhibition (cell toxic) of […] growth factor receptor (EGFR) high expressing homo […] cancer cell-A431 cell. The cellular assay described here measure the compounds of their anti-angiogenesis and proliferation inhibition activity and effect through EGFR on the cancer cells in vitro. The effect and activity is represented by the IC50 value that kills the cancer cell. […] The homo […] highly express EGFR are chosen and seeded to 96-well cell culture plate at a suitable concentration (exp 5000 cells/ml medium). The cells then are cultured in carbon dioxide (CO2) incubator till when they confluence to about 85%. Then, the cell culture medium is replaced by fresh one with tested compounds added in it at serial concentrations (general 6 to 7 concentrations). Then the cells are put back to the culture and cultured for continuous 72 hours. 72 hours later, the cell exposed to compounds and control cell are assayed for their proliferation using Sulforhodamine B (SRB) method. Compounds IC50 on tested cells are calculated by the data of inhibition rates of serial concentrations of the tested compounds. • a. Dimethyl sulfoxide (Sinophma chemical reagent company, catalog No. T20050806) • b. A431 cells (Purchased from Institute of biochemistry and cell biology) • c. Falcon 100 mm cell culture plates (Baton Dickison Labware, Baton Dickison and company, • Catalog No. 18677) • d. coming 96-well culture cluster (Corning Incorporated, Catalog No. 3599) • e. Fisher Pipette (Fisher scientific, Catalog No. 03-692-164) • f. DMEM/F12 cell medium (Gibco, Catalog No. 12400-024) • g. Fetal bovine serum, origin from Australia (Gibco, Catalog No. 10099-141) • h. […] Sulforhodamine B (Sigma, Catalog No. 3520-42-1) • k. Acetic Acid (Sinophma chemical reagent company, Catalog No. T20060508) • l. Trichloroacetic Acid (Sinophma chemical reagent company, Catalog No. T20060305) • m. Tris base (Amresco, Catalog No. 0826) • n. Class II A/B3 Biological safety cabinet (ThermoForma Catalog No. HB0053 03) • o. Series II water jacketed CO2 incubator (ThermoForma Model: 3111) • p. Centrifuge (Fisher Scientific Marathon 8 k, Catalog No. 0027-02) • q. Novastar Plate reader (BMG Labtech, Catalog No. 700 0081) • r. Orbital Shaker (Qilinbeier, Catalog No. TS-1) Protocol: […] Growing seeded 96-well plates at 37° C., 5% CO2, till 85% confluence. • 4. Prepare compounds stock solution, using DMSO solve candidate compounds to a concentration of 20 mM. […] Use cell culture medium (in this case, DMEM/F12+10% FBS) to dilute the compounds solution prepared above. Each DMSO serial concentration compound solution is diluted by 20 times with culture medium by adding 5 μl DMSO compound solution to 95 μl culture medium, then mix well by vortex. This promise that the DMSO concentration at that the A431 cell will exposed to will not surpass 0.5%. • 6. […] Each well added 180 μl medium, then add 20 μl medium solution of tested compounds prepared at step 5 to each well. For control group cell, add 20 μl culture medium containing 0.5% pure DMSO. […] Each 96-well plate, we can test 3 compounds with a control cell group. • 7. Put the culture plates back to incubator, culture for 72 hours at 37° C., 5% CO2. • 8. 72 hours later, remove cultures from incubator into sterile work area. • 9. Prepare fixative (50% Trichloroacetic Acid-TCA) by adding reagent grade water to the TCA, fix the cells by gently layering […] of cold TCA solution on top of the growth medium. • 10. Incubate plates for 1 hour at 4° C. and then rinse with water several times to remove TCA, serum proteins, etc. Plates are air dried and stored until use. Bland background optical density is measured in wells incubated with growth medium without cells. • 11. Use 10% acetic acid solution to prepare 0.4% Sulforhodamine B solution. Add 50 μl sulforhodamine B solution to each well of 96-well plates. • 12. […]

| IC50 [2] | SMILES | IC50 [1] |
| --- | --- | --- |
| 12600 nM | CCN(CC)CCN1CCc2[nH]c(/C=C3\C(=O)Nc4c(N)cc(F)cc43)c(C)c2C1=O [Example 4] | 3600 nM |
| 1380 nM | CCN(CC)CCN1CCc2[nH]c(/C=C3\C(=O)Nc4c(NC=O)cc(F)cc43)c(C)c2C1=O [Example 5, N-{3-[5-(2-Diethylamino-ethyl)-3-methyl-4-oxo-4,5,6,7-tetrahydro-1H-pyrrolo[3,2-c]pyridine-2-ylmethylene]-5-fluoro-2-oxo-2,3-dihydro-1H-indol-7-yl}-formamide] | 10500 nM |
|  | CCN(CC)CCN1CCc2[nH]c(/C=C3\C(=O)Nc4ccc(NS(C)(=O)=O)cc43)c(C)c2C1=O [Example 10, N-{3-[5-(2-Diethylamino-ethyl)-3-methyl-4-oxo-4,5,6,7-tetrahydro-1H-pyrrolo[3,2-c]pyridine-2-ylmethylene]-2-oxo-2,3-dihydro-1H-indol-5-yl}-methanesulfonamide] | 360 nM |
|  | CCN(CC)CCN1CCc2[nH]c(/C=C3\C(=O)Nc4ccc(NC(C)=O)cc43)c(C)c2C1=O [Example 11, N-{3-[5-(2-Diethylamino-ethyl)-3-methyl-4-oxo-4,5,6,7-tetrahydro-1H-pyrrolo[3,2-c]pyridine-2-ylmethylene]-2-oxo-2,3-dihydro-1H-indol-5-yl}-acetamide] | 170 nM |
|  | Cc1c(/C=C2\C(=O)Nc3ccc(Br)cc32)[nH]c2c1C(=O)N(CCN1CCOCC1)CC2 [Example 17, 2-(5-Bromo-2-oxo-1,2-dihydro-indol-3-ylidenemethyl)-3-methyl-5-(2-mopholin-4-yl-ethyl)-1,5,6,7-tetrahydro-pyrrolo[3,2-c]pyridin-4-one] | 2260 nM |
|  | CC(=O)Nc1cc2c(cc1F)/C(=C/c1[nH]c3c(c1C)C(=O)N(CCN1CCOCC1)CC3)C(=O)N2 [Example 19, N-{5-Fluoro-3-[3-methyl-5-(2-morpholin-4-yl-ethyl)-4-oxo-4,5,6,7-tetrahydro-1H-pyrrolo[3,2-c]pyridine-2-ylmethylene]-2-oxo-2,3-dihydro-1H-indol-6-yl}-acetamide] | 2560 nM |
|  | Cc1c(/C=C2\C(=O)Nc3cc(N)c(F)cc32)[nH]c2c1C(=O)N(CCN1CCOCC1)CC2 [Example 20, 2-(6-Amino-5-fluoro-2-oxo-1,2-dihydro-indol-3-ylidenemethyl)-3-methyl-5-(2-morpholin-4-yl-ethyl)-1,5,6,7-tetrahydro-pyrrolo[3,2-c]pyridin-4-one] | 15300 nM |
|  | Cc1c(/C=C2\C(=O)Nc3c(N)cc(F)cc32)[nH]c2c1C(=O)N(CCN1CCOCC1)CC2 [Example 21, 2-(7-Amino-5-fluoro-2-oxo-1,2-dihydro-indol-3-ylidenemethyl)-3-methyl-5-(2-morpholin-4-yl-ethyl)-1,5,6,7-tetrahydro-pyrrolo[3,2-c]pyridin-4-one] | 2100 nM |
|  | Cc1c(/C=C2\C(=O)Nc3cccc(-c4cccc(F)c4F)c32)[nH]c2c1C(=O)N(CCN1CCOCC1)CC2 [Example 44, 2-[4-(2,3-Difluoro-phenyl)-2-oxo-1,2-dihydro-indol-3-ylidenemethyl]-3-methyl-5-(2-morpholin-4-yl-ethyl)-1,5,6,7-tetrahydro-pyrrolo[3,2-c]pyridin-4-one] | 1320 nM |
|  | COc1ccc2c(c1)/C(=C/c1[nH]c3c(c1C)C(=O)N(CCN1CCOCC1)CC3)C(=O)N2 [Example 45, 2-(5-Methoxy-2-oxo-1,2-dihydro-indol-3-ylidenemethyl)-3-methyl-5-(2-morpholin-4-yl-ethyl)-1,5,6,7-tetrahydro-pyrrolo[3,2-c]pyridin-4-one] | 1150 nM |
|  | O=C1Nc2ccc(F)cc2/C1=C/c1[nH]c2c(c1-c1ccc(F)cc1)C(=O)NCC2 [Example 46, 2-(5-Fluoro-2-oxo-1,2-dihydro-indol-3-ylidenemethyl)-3-(4-fluoro-phenyl)-1,5,6,7-tetrahydro-pyrrolo[3,2-c]pyridin-4-one] | 10500 nM |
|  | Cc1cccc2c1/C(=C/c1[nH]c3c(c1C)C(=O)N(CCN1CCOCC1)CC3)C(=O)N2 [Example 51, 3-Methyl-2-(4-methyl-2-oxo-1,2-dihydro-indol-3-ylidenemethyl)-5-(2-morpholin-4-yl-ethyl)-1,5,6,7-tetrahydro-pyrrolo[3,2-c]pyridin-4-one] | 780 nM |
|  | Cc1c(/C=C2\C(=O)Nc3ccc(NC=O)cc32)[nH]c2c1C(=O)N(CCN1CCOCC1)CC2 [Example 55, N-{3-[3-Methyl-5-(2-morpholin-4-yl-ethyl)-4-oxo-4,5,6,7-tetrahydro-1H-pyrrolo[3,2-c]pyridin-2-ylmethylene]-2-oxo-2,3-dihydro-1H-indol-5-yl}-formamide] | 3720 nM |
|  | O=C1Nc2ccc(Cl)cc2/C1=C/c1[nH]c2c(c1-c1ccc(F)cc1)C(=O)NCC2 [Example 58, 2-(5-Chloro-2-oxo-1,2-dihydro-indol-3-ylidenemethyl)-3-(4-fluoro-phenyl)-1,5,6,7-tetrahydro-pyrrolo[3,2-c]pyridin-4-one] | 3990 nM |
